Assay results from patent publication US20240408068A1, “Helicase Primase Inhibitors For Treating Cancer In A Combination Therapy With Oncolytic Viruses” (priority 2018, published 2024).

Legend:
HSV-1 = assay: In vitro activity, HSV-1 infected Vero cells; assay type: cell-based; conditions: Human alphaherpesvirus 1, Vero
Description: (§1) The in vitro activity of the new compounds was measured as described in WO2017/174640 and in WO2019/068817.

HSV-1 ACV resistant = assay: In vitro activity, HSV-1 ACV resistant; assay type: cell-based; conditions: Human alphaherpesvirus 1
Description: as §1

CT26 tumor = assay: oHSV animal model: tumor volume in syngeneic bilaterally-inoculated subcutaneous CT26 tumor-bearing mice; assay type: in vivo, Balbc/j mice
Description: Assessment of the efficacy of an oncolytic virus treatment in the presence and absence of a potential virostatic test compound (Example 7(-)) in a syngeneic bilaterally-inoculated subcutaneous CT26 tumor-bearing mouse model.
CT26 tumor cells (500 000 cell in 100 μL) were subcutaneously inoculated bilaterally into the right and left flanks of 9 week-old immuno-competent female Balbc/j mice after 20 days acclimation (Provider: Charles River Laboratories—BP 0109—F 69592 L'Arbresle Cedex).
The inoculation procedure of colorectal CT26 tumors in mice was as follows: • At the end of the 20 days acclimation period, and in order to identify the animal all along the experimental procedure (for tumor volume monitoring in particular), mice were identified using tattoo. • The day before tumor cell inoculation, mice have been shaved at the injection sites, under isoflurane gas anesthesia (4% induction and 2% maintain). • The day of inoculation, mice were anesthetized with gas anesthesia with 4% isoflurane induction and 2% isoflurane for anesthesia maintaining. • Tumor cells to be inoculated were resuspended in sterile PBS and the needed volume was loaded in 1 ml syringe with a 26 gauge needle (500000 cells/100 μL).
Virus injection (with HSV-1 Herpes Simplex Virus or vehicle) was performed with a 29G gauge needle (0.5 mL) insulin syringe when tumors reached an average volume of 40 mm^3(on day 7). At this time, virus was injected intratumorally (50 μL corresponding to 5×10^6 HSV-1 (experimental groups 3, 5, 6 and 8) or 100 μL corresponding to 1×10^8 HSV-1 (experimental groups 4 and 7)), into the tumor of the right flank.
Pharmacological animal groups (8 animal per group, 64 animals in total) were organized as such: • 1. Control virus-untreated group: test compound vehicle (200 μL, 5% DMSO; 0.5% hydroxypropylmethylcellulose (HPMC) in PBS) oral gavage (20 gauge needle standard suspension applicator), once a day, for 10 days and starting 72 h after virus injection for the other groups. • 2. Control virus vehicle-treated group: 50 μL of virus vehicle, intratumoral injection when tumors reached an average volume of app. 40 mm^3, with test compound vehicle, oral gavage, once a day, for 10 days and starting 72 h after vehicle virus injection. • 3. HSV-1 (quantity 1; 5×10^6 pfu)-treated group: 50 μL of HSV-1 (5×10^6), intratumoral injection when tumors reached an average volume of app. 40 mm^3, with test compound vehicle, oral gavage, once a day, for 10 days and starting 72 h after virus injection, and with anti-PD1/anti-CTLA4 vehicle, intraperitoneal injection (200 μL PBS) on the same day as the virus injection, and then 3 administrations spaced 3 days apart each other (day 7, 10, 13 and 16). • 4. HSV-1 (quantity 2; 1×10^8 pfu)-treated group: 100 μL of HSV-1 (1×10^8) intratumoral injection when tumors reached an average volume of app. 40 mm^3, with test compound vehicle, oral gavage, once a day, for 10 days and starting 72 h after virus injection. • 5. HSV-1 (quantity 1; 5×10^6 pfu)-test compound-treated group: 50 μL of HSV-1 (5×10^6), intratumoral injection when tumors reached an average volume of app. 40 mm^3, with Example 7(-) (10 mg/kg, 20 mg/mL stock in DMSO, final 1 mg/mL, 5% DMSO; 0.5% HPMC in PBS (w/v), the suspension has been sonicated (2 min ultrasound bath, room temperature)), oral gavage (200 μL), once a day, for 10 days and starting 72 h after virus injection, and with anti-PD1/anti-CTLA4 vehicle, intraperitoneal injection (200 μL, PBS) on the same day as the virus injection, and then 3 administrations spaced 3 days apart each other (day 7, 10, 13 and 16). • 6. […]

[1] = in vivo; cited from earlier work
[2] = in vivo; cited from earlier work; remark: listed apart in the source
[3] = day 0, with HSV-1 1·10^8, 10 mg/kg po from 72 h pi
[4] = day 0, with HSV-1 5·10^6, 10 mg/kg po from 0 h pi
[5] = day 0, with HSV-1 5·10^6, 10 mg/kg po from 72 h pi
[6] = day 5, with HSV-1 1·10^8, 10 mg/kg po from 72 h pi
[7] = day 5, with HSV-1 5·10^6, 10 mg/kg po from 0 h pi
[8] = day 5, with HSV-1 5·10^6, 10 mg/kg po from 72 h pi
[9] = day 7, with HSV-1 1·10^8, 10 mg/kg po from 72 h pi
[10] = day 7, with HSV-1 5·10^6, 10 mg/kg po from 0 h pi
[11] = day 7, with HSV-1 5·10^6, 10 mg/kg po from 72 h pi
[12] = day 10, with HSV-1 1·10^8, 10 mg/kg po from 72 h pi
[13] = day 10, with HSV-1 5·10^6, 10 mg/kg po from 0 h pi
[14] = day 10, with HSV-1 5·10^6, 10 mg/kg po from 72 h pi
[15] = day 12, with HSV-1 1·10^8, 10 mg/kg po from 72 h pi
[16] = day 12, with HSV-1 5·10^6, 10 mg/kg po from 0 h pi
[17] = day 12, with HSV-1 5·10^6, 10 mg/kg po from 72 h pi
[18] = day 14, with HSV-1 1·10^8, 10 mg/kg po from 72 h pi
[19] = day 14, with HSV-1 5·10^6, 10 mg/kg po from 0 h pi
[20] = day 14, with HSV-1 5·10^6, 10 mg/kg po from 72 h pi
[21] = day 17, with HSV-1 1·10^8, 10 mg/kg po from 72 h pi
[22] = day 17, with HSV-1 5·10^6, 10 mg/kg po from 0 h pi
[23] = day 17, with HSV-1 5·10^6, 10 mg/kg po from 72 h pi
[24] = day 19, with HSV-1 1·10^8, 10 mg/kg po from 72 h pi
[25] = day 19, with HSV-1 5·10^6, 10 mg/kg po from 0 h pi
[26] = day 19, with HSV-1 5·10^6, 10 mg/kg po from 72 h pi

Cc1nc(N(C)C(=O)Cc2ccc(-c3cc(F)ccc3F)cc2)sc1[S@@](C)(=N)=O [Example 7(−), (−)-(S)-2-(2′,5′-Difluoro-[1,1′-biphenyl]-4-yl)-N-methyl-N-(4-methyl-5-(S-methylsulfonimidoyl)thiazol-2-yl)acetamide]
IC50 (HSV-1): 10 to 50 nM | IC50 (HSV-1 ACV resistant): 10 to 50 nM | Median tumor volume - Left tumors (CT26 tumor; [3]): 0 mm^3 | Median tumor volume - Right tumors (CT26 tumor; [3]): 0 mm^3 | Median tumor volume - Right tumors (CT26 tumor; day 0, with HSV-1 5·10^6 + aPD-1 + aCTLA4, 10 mg/kg po from 72 h pi): 0 mm^3 | Median tumor volume - Left tumors (CT26 tumor; day 0, with HSV-1 5·10^6 + aPD-1 + aCTLM, 10 mg/kg po from 72 h pi): 0 mm^3 | Median tumor volume - Left tumors (CT26 tumor; [4]): 0 mm^3 | Median tumor volume - Right tumors (CT26 tumor; [4]): 0 mm^3 | Median tumor volume - Left tumors (CT26 tumor; [5]): 0 mm^3 | Median tumor volume - Right tumors (CT26 tumor; [5]): 0 mm^3 | Median tumor volume - Left tumors (CT26 tumor; [6]): 18.17 mm^3 | Median tumor volume - Right tumors (CT26 tumor; [6]): 16.55 mm^3 | Median tumor volume - Right tumors (CT26 tumor; day 5, with HSV-1 5·10^6 + aPD-1 + aCTLA4, 10 mg/kg po from 72 h pi): 16.235 mm^3 | Median tumor volume - Left tumors (CT26 tumor; day 5, with HSV-1 5·10^6 + aPD-1 + aCTLM, 10 mg/kg po from 72 h pi): 14.66 mm^3 | Median tumor volume - Left tumors (CT26 tumor; [7]): 15.755 mm^3 | Median tumor volume - Right tumors (CT26 tumor; [7]): 16.705 mm^3 | Median tumor volume - Left tumors (CT26 tumor; [8]): 14.155 mm^3 | Median tumor volume - Right tumors (CT26 tumor; [8]): 17.665 mm^3 | Median tumor volume - Left tumors (CT26 tumor; [9]): 23.55 mm^3 | Median tumor volume - Right tumors (CT26 tumor; [9]): 39.735 mm^3 | Median tumor volume - Right tumors (CT26 tumor; day 7, with HSV-1 5·10^6 + aPD-1 + aCTLA4, 10 mg/kg po from 72 h pi): 31.03 mm^3 | Median tumor volume - Left tumors (CT26 tumor; day 7, with HSV-1 5·10^6 + aPD-1 + aCTLM, 10 mg/kg po from 72 h pi): 18.32 mm^3 | Median tumor volume - Left tumors (CT26 tumor; [10]): 21.61 mm^3 | Median tumor volume - Right tumors (CT26 tumor; [10]): 25.5 mm^3 | Median tumor volume - Left tumors (CT26 tumor; [11]): 22.85 mm^3 | Median tumor volume - Right tumors (CT26 tumor; [11]): 36.435 mm^3 | Median tumor volume - Left tumors (CT26 tumor; [12]): 33.055 mm^3 | Median tumor volume - Right tumors (CT26 tumor; [12]): 74.725 mm^3 | Median tumor volume - Right tumors (CT26 tumor; day 10, with HSV-1 5·10^6 + aPD-1 + aCTLA4, 10 mg/kg po from 72 h pi): 72.935 mm^3 | Median tumor volume - Left tumors (CT26 tumor; day 10, with HSV-1 5·10^6 + aPD-1 + aCTLM, 10 mg/kg po from 72 h pi): 47.345 mm^3 | Median tumor volume - Left tumors (CT26 tumor; [13]): 43.385 mm^3 | Median tumor volume - Right tumors (CT26 tumor; [13]): 43.32 mm^3 | Median tumor volume - Left tumors (CT26 tumor; [14]): 55.18 mm^3 | Median tumor volume - Right tumors (CT26 tumor; [14]): 45.605 mm^3 | Median tumor volume - Left tumors (CT26 tumor; [15]): 92.98 mm^3 | Median tumor volume - Right tumors (CT26 tumor; [15]): 115.17 mm^3 | Median tumor volume - Right tumors (CT26 tumor; day 12, with HSV-1 5·10^6 + aPD-1 + aCTLA4, 10 mg/kg po from 72 h pi): 94.56 mm^3 | Median tumor volume - Left tumors (CT26 tumor; day 12, with HSV-1 5·10^6 + aPD-1 + aCTLM, 10 mg/kg po from 72 h pi): 58.12 mm^3 | Median tumor volume - Left tumors (CT26 tumor; [16]): 73.31 mm^3 | Median tumor volume - Right tumors (CT26 tumor; [16]): 48.78 mm^3 | Median tumor volume - Left tumors (CT26 tumor; [17]): 121.82 mm^3 | Median tumor volume - Right tumors (CT26 tumor; [17]): 76.655 mm^3 | Median tumor volume - Left tumors (CT26 tumor; [18]): 224.29 mm^3 | Median tumor volume - Right tumors (CT26 tumor; [18]): 142.49 mm^3 | Median tumor volume - Right tumors (CT26 tumor; day 14, with HSV-1 5·10^6 + aPD-1 + aCTLA4, 10 mg/kg po from 72 h pi): 105.02 mm^3 | Median tumor volume - Left tumors (CT26 tumor; day 14, with HSV-1 5·10^6 + aPD-1 + aCTLM, 10 mg/kg po from 72 h pi): 71.44 mm^3 | Median tumor volume - Left tumors (CT26 tumor; [19]): 112.98 mm^3 | Median tumor volume - Right tumors (CT26 tumor; [19]): 39.01 mm^3 | Median tumor volume - Left tumors (CT26 tumor; [20]): 141.445 mm^3 | Median tumor volume - Right tumors (CT26 tumor; [20]): 86.87 mm^3 | Median tumor volume - Left tumors (CT26 tumor; [21]): 348.78 mm^3 | Median tumor volume - Right tumors (CT26 tumor; [21]): 93.34 mm^3 | Median tumor volume - Right tumors (CT26 tumor; day 17, with HSV-1 5·10^6 + aPD-1 + aCTLA4, 10 mg/kg po from 72 h pi): 60.17 mm^3 | Median tumor volume - Left tumors (CT26 tumor; day 17, with HSV-1 5·10^6 + aPD-1 + aCTLM, 10 mg/kg po from 72 h pi): 66.86 mm^3 | Median tumor volume - Left tumors (CT26 tumor; [22]): 169.68 mm^3 | Median tumor volume - Right tumors (CT26 tumor; [22]): 60.71 mm^3 | Median tumor volume - Left tumors (CT26 tumor; [23]): 219.98 mm^3 | Median tumor volume - Right tumors (CT26 tumor; [23]): 99.21 mm^3 | Median tumor volume - Left tumors (CT26 tumor; [24]): 352.82 mm^3 | Median tumor volume - Right tumors (CT26 tumor; [24]): 100 mm^3 | Median tumor volume - Right tumors (CT26 tumor; day 19, with HSV-1 5·10^6 + aPD-1 + aCTLA4, 10 mg/kg po from 72 h pi): 84.68 mm^3 | Median tumor volume - Left tumors (CT26 tumor; day 19, with HSV-1 5·10^6 + aPD-1 + aCTLM, 10 mg/kg po from 72 h pi): 49.84 mm^3 | Median tumor volume - Left tumors (CT26 tumor; [25]): 474.53 mm^3 | Median tumor volume - Right tumors (CT26 tumor; [25]): 72.69 mm^3 | Median tumor volume - Left tumors (CT26 tumor; [26]): 285.49 mm^3 | Median tumor volume - Right tumors (CT26 tumor; [26]): 105 mm^3 | ED50 in animal models [1]: lowest ED50 in animal models reported so far | brain exposure [2]: highest brain exposure reported to date
